The values below come from patent publication US20070160725A1, “Use of extracts and compounds of allium-genus plants as preservatives in the food and agri-food industries” (MOUSALA, S., L., priority 2004, published 2007).

What all share (assay): agar diffusion, inhibition halo
Format in all cases: cell-based

Experiment [1] has as its system Mucor plumbeus, isolated from cheese. As to conditions: 1000 ppm. On the procedure:
(§1) In order to evaluate the antimicrobial activity the agar diffusion technique with cellulose discs of 6 mm in diameter impregnated with the different active ingredient testing doses was used.
(§2) Antifungal capacity was assessed against suspensions of […], harvested from pure cultures of the selected molds and against suspensions of 10^7 cells/ml for the case of yeasts. The culture medium used was the 2% Sabouraud-glucose medium (Merck).
(§3) After incubating the culture dishes inoculated with the different organisms at the corresponding temperatures, the microbial inhibition halos that appeared were measured, and said measurement includes the 6 mm diameter of the cellulose discs.

In experiment [2] the test system is Penicillium italicum CECT 2294. As to conditions: for zone of inhibition at 1000 ppm / zone of inhibition at 4000 ppm / zone of inhibition at 6000 ppm: Penicillium italicum; for zone of inhibition at 1000 ppm: CECT2294, read-out: inhibition halo diameter; for zone of inhibition at 4000 ppm / zone of inhibition at 6000 ppm: CECT2294, read-out: inhibition halo diameter. How it is done: as §1, §2, §3

The test system of experiment [3] is Staphylococcus aureus, isolated from hamburgers. As to conditions: 1000 ppm. How it is done: as §1
(§4) Antibacterial capacity was assessed against suspensions of 10^6 cells/ml, prepared from pure young cultures of each one of the strains to be tested. The culture medium used was Müller-Hinton medium (Merck).
as §3

Experiment [4] deals with Bacillus subtilis, isolated from paprika. As to conditions: 1000 ppm. How it is done:
as §1, §4, §3

Experiment [5] relates to Salmonella typhimurium, ATCC 13311. The note with it: 1000 ppm. On the procedure:
as §1, §4, §3

In experiment [6] the test system is Trichoderma aureoviride CECT 20102. How it is done: as §1, §2, §3
Experiment [7] has as its system Geotrichum candidum CECT 1902. How it is done: as §1, §2, §3
In experiment [8] the test system is Rhizopus stolonifer CECT 2344. On the procedure: as §1, §2, §3
Setting [9] is: 1000 ppm (active ingredient, dose in ppm).
The mark [10] stands for this setting: 2000 ppm (active ingredient, dose in ppm).
The mark [11] stands for this setting: 4000 ppm (active ingredient, dose in ppm).
Where [12] appears, read: 6000 ppm (active ingredient, dose in ppm).

As to `CCCSS(=O)(=O)CCC` [PTSO, Propyl Propylthiosulfonate], the inhibition halo diameter in experiment [1] is listed as 13 mm; in experiment [3], 55 mm; in experiment [4], 65 mm; in experiment [5], 31 mm. Further, the zone of inhibition at 1000 ppm in experiment [2] is 65 mm.
Consider `[Na+].[O-]c1ccccc1-c1ccccc1` [30% Na o-phenylphenate, Na o-phenylphenate], for which the inhibition halo diameter was determined as 0 mm in experiment [6] (setting [9]); 10 mm in experiment [6] (setting [10]); 20 mm in experiment [6] (setting [11]); 35 mm in experiment [6] (setting [12]); 7 mm in experiment [7] (setting [9]); 30 mm in experiment [7] (setting [10]). The inhibition halo diameter is reported as 35 mm in experiment [7] (setting [11]); 40 mm in experiment [7] (setting [12]); 0 mm in experiment [8] (setting [9]); 0 mm in experiment [8] (setting [10]); 0 mm in experiment [8] (setting [11]); 0 mm in experiment [8] (setting [12]). Besides, the inhibition halo diameter in experiment [2] (setting [9]) worked out at 20 mm; in experiment [2] (setting [10]) it was 30 mm; in experiment [2] (setting [11]) it was 33 mm; in experiment [2] (setting [12]) it was 53 mm.
In the case of `c1ccc(-c2ccccc2)cc1` [Biphenyl], the inhibition halo diameter in experiment [6] (setting [11]), in experiment [6] (setting [12]), in experiment [7] (setting [11]), in experiment [7] (setting [12]), in experiment [8] (setting [11]) and in experiment [8] (setting [12]) was 0 mm in each case. Further, the zone of inhibition at 4000 ppm in experiment [2] turned out to be 7 mm. For the same compound, in experiment [2], the zone of inhibition at 6000 ppm came to 8 mm.
`Oc1ccccc1-c1ccccc1` [o-Phenyl phenol]: the inhibition halo diameter in experiment [6] (setting [11]) came to 40 mm; in experiment [6] (setting [12]), 42 mm; in experiment [7] (setting [11]), 45 mm; in experiment [7] (setting [12]) it was 47 mm; in experiment [8] (setting [11]), 14 mm; in experiment [8] (setting [12]), 15 mm. The zone of inhibition at 4000 ppm in experiment [2] was found to be 45 mm. For the same compound, the zone of inhibition at 6000 ppm in experiment [2] is 45 mm.
As for `CCCCS[S+]([O-])CCCC` (stereo not drawn) [BTS, n-butyl n-butyl thiosulfinate], the inhibition halo diameter worked out at 17 mm in experiment [1], 45 mm in experiment [3], 60 mm in experiment [4] and 20 mm in experiment [5]. In addition, in experiment [2], the zone of inhibition at 1000 ppm worked out at 67 mm.
